Results taken from US20250215010A1, “DIAZABICYCLOOCTANE DERIVATIVES USEFUL AS MATRIX METALLOPROTEINASE INHIBITORS” (VASA THERAPEUTICS SPOLKA Z OGRANICZONA ODPOWIEDZIALNOSCIA, priority 2022, published 2025).

Assays:
Type in all cases: biochemical
ADAM17 (TACE) = ADAM17 (TACE) (Homo sapiens, UniProt P78536); assay: TACE fluorometric inhibition assay (Enzo kit BML-AK310); conditions: quenched fluorogenic peptide, ex/em 320/420 nm; read-out: TACE IC50 class
Procedure, shortened: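 Kit-based TACE assay run per manufacturer's protocol, using quenched fluorogenic peptide Mca-PLAQAV-Dpa-RSSSR-NH2 whose cleavage raises Mca fluorescence. Signal read at ex/em 320/420 nm; IC50 (nM) derived from inhibition curves of normalized values.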

MMP13 = biological target: T1, MMP13 (Homo sapiens, UniProt P45452); assay: MMP-13 colorimetric inhibition assay (Enzo kit BML-AK412); conditions: thiopeptide substrate, absorbance 415 nm; read-out: MMP 13 IC50 class
T1 construct: purchased Enzo Life Sciences, Inc. BML-AK412
Procedure, shortened: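 Thiopeptide chromogenic substrate (Ac-PLG-[2-mercapto-4-methylpentanoyl]-LG-OC2H5); MMP-13 hydrolysis of the thioester yields a thiol that reacts with DTNB, read at 415 nm. IC50 values (nM) derived from inhibition curves of normalized data.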

MMP2 = biological target: T2, MMP2 (Homo sapiens, UniProt P08253); assay: MMP-2 colorimetric inhibition assay (Enzo kit BML-AK408); conditions: thiopeptide substrate, absorbance 415 nm; read-out: MMP 2 IC50 class
T2 sequence (P08253 110-660): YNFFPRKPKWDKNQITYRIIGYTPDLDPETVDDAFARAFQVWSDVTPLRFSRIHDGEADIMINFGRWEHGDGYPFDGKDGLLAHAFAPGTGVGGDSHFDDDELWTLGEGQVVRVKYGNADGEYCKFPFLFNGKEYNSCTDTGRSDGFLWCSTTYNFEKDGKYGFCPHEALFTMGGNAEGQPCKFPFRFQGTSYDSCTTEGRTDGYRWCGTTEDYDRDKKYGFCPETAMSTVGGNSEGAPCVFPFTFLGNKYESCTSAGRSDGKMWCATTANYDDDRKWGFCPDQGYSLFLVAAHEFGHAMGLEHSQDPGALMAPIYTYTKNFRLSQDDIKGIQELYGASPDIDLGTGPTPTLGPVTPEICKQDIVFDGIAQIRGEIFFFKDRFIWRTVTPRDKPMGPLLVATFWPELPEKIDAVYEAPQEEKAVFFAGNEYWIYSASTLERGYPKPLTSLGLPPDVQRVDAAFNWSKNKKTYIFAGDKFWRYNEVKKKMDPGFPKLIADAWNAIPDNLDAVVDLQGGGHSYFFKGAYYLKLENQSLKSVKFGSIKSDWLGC
Procedure, shortened: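 Cleavage of the thiopeptide Ac-PLG-[2-mercapto-4-methylpentanoyl]-LG-OC2H5 releases a sulfhydryl that reacts with DTNB, read at 415 nm per the kit protocol. IC50 values (nM) come from inhibition curves of normalized data.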

ADAM10 = biological target: T3, ADAM10 (Homo sapiens, UniProt O14672); assay: SensoLyte 520 ADAM10 fluorometric activity assay (AnaSpec AS-72226); conditions: FRET peptide substrate, ex/em 495/520 nm; read-out: ADAM 10 IC50 class
T3 construct: purchased AnaSpec, Inc. AS-72226
T3 sequence (O14672 214-748): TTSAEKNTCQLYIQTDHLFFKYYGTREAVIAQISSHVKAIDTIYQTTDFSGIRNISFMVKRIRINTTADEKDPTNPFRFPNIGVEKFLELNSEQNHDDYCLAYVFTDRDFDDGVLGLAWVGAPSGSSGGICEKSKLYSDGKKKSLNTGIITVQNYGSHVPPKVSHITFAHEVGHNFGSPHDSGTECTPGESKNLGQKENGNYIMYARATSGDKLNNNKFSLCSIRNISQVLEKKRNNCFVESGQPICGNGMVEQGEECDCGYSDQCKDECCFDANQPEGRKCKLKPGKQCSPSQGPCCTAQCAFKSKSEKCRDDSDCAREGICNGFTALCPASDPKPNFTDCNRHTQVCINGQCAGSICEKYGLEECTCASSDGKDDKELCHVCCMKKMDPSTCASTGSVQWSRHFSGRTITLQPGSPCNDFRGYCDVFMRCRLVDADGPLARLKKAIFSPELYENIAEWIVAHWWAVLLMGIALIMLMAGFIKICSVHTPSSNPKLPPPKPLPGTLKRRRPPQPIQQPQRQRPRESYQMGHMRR
Procedure, shortened: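 ADAM10 activity was read by cleavage of a FRET peptide substrate (5-FAM/QXL 520), run per the kit protocol, with fluorescence at 495/520 nm. IC50 values (nM) came from inhibition curves of normalized data.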

MMP1 = biological target: T4, MMP1 (Homo sapiens, UniProt P03956); assay: MMP-1 colorimetric inhibition assay (Enzo kit BML-AK404); conditions: thiopeptide substrate, absorbance 415 nm; read-out: MMP 1 IC50 class
T4 sequence (P03956 100-269 limits assumed): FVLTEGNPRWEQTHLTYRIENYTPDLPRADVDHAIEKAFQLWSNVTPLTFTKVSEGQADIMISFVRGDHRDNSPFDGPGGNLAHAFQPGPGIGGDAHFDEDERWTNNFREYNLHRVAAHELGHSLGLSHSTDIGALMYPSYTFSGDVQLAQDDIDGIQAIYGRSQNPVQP
Procedure, shortened: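 Colorimetric kit run per manufacturer protocol. MMP-1 cleaves a thiopeptide substrate (Ac-PLG-[2-mercapto-4-methylpentanoyl]-LG-OC2H5); released thiol reacts with DTNB, monitored at 415 nm. IC50 (nM) from inhibition curves of normalized values.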

MMP9 = MMP9 (Homo sapiens, UniProt P14780); assay: MMP-9 colorimetric inhibition assay (Enzo kit BML-AK410); conditions: thiopeptide substrate, absorbance 415 nm; read-out: MMP 9 IC50 class
Procedure, shortened: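 Colorimetric thioester-substrate assay: hydrolysis of Ac-PLG-[2-mercapto-4-methylpentanoyl]-LG-OC2H5 frees a thiol that reacts with DTNB, read at 415 nm. Run per kit protocol. IC50 (nM) taken from inhibition curves of normalized values.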

MMP9, sequence (P14780 94-707): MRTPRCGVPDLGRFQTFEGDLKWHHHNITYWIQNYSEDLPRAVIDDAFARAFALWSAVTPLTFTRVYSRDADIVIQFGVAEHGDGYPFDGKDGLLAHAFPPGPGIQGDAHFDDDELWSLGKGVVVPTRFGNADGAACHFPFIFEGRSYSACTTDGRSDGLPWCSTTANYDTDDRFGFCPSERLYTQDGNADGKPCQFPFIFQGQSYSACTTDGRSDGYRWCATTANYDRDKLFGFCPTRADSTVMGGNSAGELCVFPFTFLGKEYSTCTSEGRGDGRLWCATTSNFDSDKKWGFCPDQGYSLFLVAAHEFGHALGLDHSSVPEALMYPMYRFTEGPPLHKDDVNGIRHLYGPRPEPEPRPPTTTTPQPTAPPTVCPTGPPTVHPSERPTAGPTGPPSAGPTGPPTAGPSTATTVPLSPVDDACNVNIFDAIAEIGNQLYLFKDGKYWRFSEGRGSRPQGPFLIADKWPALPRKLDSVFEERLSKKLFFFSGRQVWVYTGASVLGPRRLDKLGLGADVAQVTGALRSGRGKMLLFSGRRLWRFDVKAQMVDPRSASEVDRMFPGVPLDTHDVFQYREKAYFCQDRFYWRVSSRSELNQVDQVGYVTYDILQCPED
ADAM17 (TACE), sequence (P78536 215-477 limits assumed): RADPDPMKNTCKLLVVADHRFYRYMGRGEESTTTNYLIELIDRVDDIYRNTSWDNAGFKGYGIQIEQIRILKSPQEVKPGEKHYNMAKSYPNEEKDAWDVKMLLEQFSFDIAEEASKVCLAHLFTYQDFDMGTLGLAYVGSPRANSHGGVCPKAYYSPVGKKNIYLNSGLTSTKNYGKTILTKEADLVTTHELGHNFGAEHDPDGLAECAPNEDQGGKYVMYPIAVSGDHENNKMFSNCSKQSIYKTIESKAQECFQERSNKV

Compound	IC50 (ADAM17 (TACE))	IC50 (MMP13)	IC50 (MMP2)	IC50 (ADAM10)	IC50 (MMP1)	IC50 (MMP9)
CC(=O)N1[C@@H]2CC[C@H]1[C@H](C(=O)NO)N(S(=O)(=O)c1ccc(Oc3ccc(OC(F)(F)F)cc3)nc1)C2 [Example 54, (1S,2R,5R)-8-acetyl-N-hydroxy-3-((6-(4-(trifluoromethoxy)-phenoxy)pyridin-3-yl)sulfonyl)-3,8-diazabicyclo[3.2.1]-octane-2-carboxamide]	1000 to 10000 nM	< 50 nM	< 50 nM	> 10000 nM	1000 to 10000 nM	< 50 nM
CCC(=O)N1[C@@H]2CC[C@H]1[C@H](C(=O)NO)N(S(=O)(=O)c1ccc(Oc3ccc(OC(F)(F)F)cc3)nc1)C2 [Example 55, (1S,2R,5R)-N-hydroxy-8-propionyl-3-((6-(4-(trifluoromethoxy)-phenoxy)pyridin-3-yl)sulfonyl)-3,8-diazabicyclo[3.2.1]-octane-2-carboxamide]	1000 to 10000 nM	< 50 nM	< 50 nM	> 10000 nM	1000 to 10000 nM	< 50 nM
CC(C)C(=O)N1[C@@H]2CC[C@H]1[C@H](C(=O)NO)N(S(=O)(=O)c1ccc(Oc3ccc(OC(F)(F)F)cc3)nc1)C2 [Example 56, (1S,2R,5R)-N-hydroxy-8-isobutyry1-3-((6-(4-(trifluoro-methoxy)phenoxy)-pyridin-3-yl)-sulfonyl)-3,8-diazabicyclo-[3.2.1]octane-2-carboxamide]	1000 to 10000 nM	< 50 nM	< 50 nM	> 10000 nM	> 10000 nM	< 50 nM
CC(C)(C)C(=O)N1[C@@H]2CC[C@H]1[C@H](C(=O)NO)N(S(=O)(=O)c1ccc(Oc3ccc(OC(F)(F)F)cc3)nc1)C2 [Example 57, (1S,2R,5R)-N-hydroxy-8-pivaloyl-3-((6-(4-(trifluoro-methoxy)phenoxy)-pyridin-3-yl)-sulfonyl)-3,8-diazabicyclo-[3.2.1]octane-2-carboxamide]	1000 to 10000 nM	< 50 nM	< 50 nM	> 10000 nM	1000 to 10000 nM	< 50 nM
CC(=O)N1[C@@H]2CC[C@H]1[C@H](C(=O)NO)N(S(=O)(=O)c1ccc(Oc3ccc(OC(C)C)cc3)nc1)C2 [Example 58, (1S,2R,5R)-8-acetyl-N-hydroxy-3-((6-(4-isopropoxyphenoxy)-pyridin-3-yl)-sulfonyl)-3,8-diazabicyclo-[3.2.1]octane-2-carboxamide]	> 10000 nM	< 50 nM	< 50 nM	> 10000 nM	1000 to 10000 nM	< 50 nM
CCC(=O)N1[C@@H]2CC[C@H]1[C@H](C(=O)NO)N(S(=O)(=O)c1ccc(Oc3ccc(OC(C)C)cc3)nc1)C2 [Example 59, (1S,2R,5R)-N-hydroxy-3-((6-(4-isopropoxyphenoxy)pyridin-3-yl)-sulfonyl)-8-propionyl-3,8-diaza-bicyclo[3.2.1]octane-2-carboxamide]	> 10000 nM	< 50 nM	< 50 nM	> 10000 nM	1000 to 10000 nM	< 50 nM
CC(=O)N1[C@@H]2CC[C@H]1[C@H](C(=O)NO)N(S(=O)(=O)c1ccc(Oc3ccc(OCC(F)(F)F)cc3)nc1)C2 [Example 62, (1S,2R,5R)-8-acetyl-N-hydroxy-3-((6-(4-(2,2,2-trifluoro-ethoxy)phenoxy)-pyridin-3-yl)-sulfonyl)-3,8-diazabicyclo[3.2.1]-octane-2-carboxamide]	> 10000 nM	< 50 nM	< 50 nM	> 10000 nM	1000 to 10000 nM	< 50 nM
COc1ccc(Oc2ccc(S(=O)(=O)N3C[C@H]4CC[C@@H]([C@@H]3C(=O)NO)N4C(C)=O)cn2)cc1F [Example 63, (1S,2R,5R)-8-acetyl-3-((6-(3-fluoro-4-methoxyphenoxy)-pyridin-3-yl)-sulfonyl)-N-hydroxy-3,8-diazabicyclo[3.2.1]-octane-2-carboxamide]	1000 to 10000 nM	< 50 nM	< 50 nM	1000 to 10000 nM	1000 to 10000 nM	< 50 nM
